{"source": "patent EP2027850A1", "about": "“Pharmaceutical compositions containing voriconazole” (SANDOZ AG, priority 2007, dated 2009)", "experiment": "solubility of voriconazole in N-methylpyrrolidone and water / NMP mixtures", "assay_type": "physicochemical", "procedure": "This can also be used to improve the solubility of voriconazole in aqueous solutions.\n0.210 g Voriconazole are dissolved in 50 mL N-Methylpyrrolidone (NMP) using a magnetic stirrer. Further aliquots of 0.305 g, 0.519 g and 1.009 Voriconazole are added to NMP-solution using magnet stirring. Solution I is obtained, composed of […] Voriconazole in 50 mL NMP.\n0.45 - 0.55 g Voriconazole are dissolved in NMP according to example 1. After obtaining a clear solution, solutions are made up with water to 20.0 mL.\nTherefore, in 20 mL solution, 0.5 g Voriconazole can be dissolved with water / NMP mixtures.", "data": [{"compound": "C[C@@H](c1ncncc1F)[C@](O)(Cn1cncn1)c1ccc(F)cc1F", "note": "[Voriconazole, (2R,3S)-2-(2,4-Difluorophenyl)-3-(5-fluoro-4-pyrimidinyl)-1-(1H-1,2,4-triazol-1-yl)-butan-2-ol]", "values": [{"measurement": "solubility in N-methylpyrrolidone", "result": "extremely high"}]}]}
